Experimental data: ChEMBL document CHEMBL1153189, “The comparative antimalarial properties of weak base and neutral synthetic ozonides” (Bioorg Med Chem Lett, 2010); call rule not given here
pIC50: −log10 of the molar value. Values after ≈ are worked out from the molar mass of the structure shown.

Key:
Plasmodium falciparum [1] = experiment: Antimalarial activity against chloroquine-sensitive Plasmodium falciparum NF54; assay type: functional, organism-based
Plasmodium berghei [2] = experiment: Antimalarial activity against Plasmodium berghei infected in NMRI mice (Mus musculus) assessed as reduction in parasitaemia at 10 mg/kg, perorally administered 1 day post infection; assay type: functional; design: scale not given: the % may be the effect or the level left; details: route oral
Plasmodium falciparum [3] = experiment: Antimalarial activity against chloroquine-resistant Plasmodium falciparum K1; assay type: functional, organism-based
Plasmodium berghei [4] = experiment: Antimalarial activity against Plasmodium berghei infected in NMRI mice (Mus musculus) assessed as cure rat at 3 mg/kg, perorally administered for 3 days post infection measured after 30 days; assay type: functional; details: route oral
[5] = Lipophilicity, log D at pH 7.4; assay type: physicochemical; details: buffer
Cytochrome P450 2D6 [6] = molecular target: T1, Cytochrome P450 2D6 (Homo sapiens, UniProt P10635); experiment: Inhibition of CYP2D6; assay type: ADME
T1 sequence (P10635 whole entry): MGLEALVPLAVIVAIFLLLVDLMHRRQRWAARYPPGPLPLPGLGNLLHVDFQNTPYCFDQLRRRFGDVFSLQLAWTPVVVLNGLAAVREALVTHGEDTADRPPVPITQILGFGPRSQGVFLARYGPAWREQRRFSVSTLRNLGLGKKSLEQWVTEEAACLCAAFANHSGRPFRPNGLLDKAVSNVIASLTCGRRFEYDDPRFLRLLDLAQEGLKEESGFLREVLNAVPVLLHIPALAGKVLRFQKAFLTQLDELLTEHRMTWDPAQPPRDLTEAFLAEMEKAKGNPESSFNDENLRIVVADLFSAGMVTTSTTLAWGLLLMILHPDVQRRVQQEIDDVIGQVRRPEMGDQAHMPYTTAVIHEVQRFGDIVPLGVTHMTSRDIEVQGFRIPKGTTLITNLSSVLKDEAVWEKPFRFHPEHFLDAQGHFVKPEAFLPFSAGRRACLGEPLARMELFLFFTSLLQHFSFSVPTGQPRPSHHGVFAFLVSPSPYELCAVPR

in vitro = details: human, liver microsomes
Description: Metabolic stability in human liver microsomes assessed as hepatic extraction ratio

Rattus norvegicus [7] = experiment: Half life in Sprague-Dawley rat at 10 mg/kg, iv; assay type: ADME, organism-based; design: dose 10 mg/kg, route intravenous; details: in vivo
Plasmodium berghei [8] = experiment: Antimalarial activity against Plasmodium berghei infected in NMRI mice (Mus musculus) assessed as survival time at 3 mg/kg, perorally administered for 3 days post infection; assay type: functional; details: route oral
Cytochrome P450 2C9 [9] = molecular target: T2, Cytochrome P450 2C9 (Homo sapiens, UniProt P11712); experiment: Inhibition of CYP2C9; assay type: ADME
T2 sequence (P11712 whole entry): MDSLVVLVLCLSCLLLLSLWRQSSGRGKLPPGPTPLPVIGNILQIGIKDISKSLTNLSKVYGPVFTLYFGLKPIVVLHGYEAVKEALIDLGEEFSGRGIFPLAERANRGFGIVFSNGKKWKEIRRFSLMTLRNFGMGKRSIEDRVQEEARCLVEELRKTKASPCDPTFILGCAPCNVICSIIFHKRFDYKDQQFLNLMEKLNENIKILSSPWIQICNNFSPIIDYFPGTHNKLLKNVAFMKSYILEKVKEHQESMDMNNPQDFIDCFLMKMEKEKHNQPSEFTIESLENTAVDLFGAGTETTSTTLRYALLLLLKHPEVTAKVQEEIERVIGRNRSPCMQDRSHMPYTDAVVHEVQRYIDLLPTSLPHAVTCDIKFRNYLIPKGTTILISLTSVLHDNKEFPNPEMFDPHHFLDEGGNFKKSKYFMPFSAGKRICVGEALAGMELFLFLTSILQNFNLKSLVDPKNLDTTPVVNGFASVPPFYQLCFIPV

Cytochrome P450 2C19 = Cytochrome P450 2C19 (Homo sapiens, UniProt P33261); experiment: Inhibition of CYP2C19; assay type: ADME
Cytochrome P450 2C19, sequence (P33261 whole entry): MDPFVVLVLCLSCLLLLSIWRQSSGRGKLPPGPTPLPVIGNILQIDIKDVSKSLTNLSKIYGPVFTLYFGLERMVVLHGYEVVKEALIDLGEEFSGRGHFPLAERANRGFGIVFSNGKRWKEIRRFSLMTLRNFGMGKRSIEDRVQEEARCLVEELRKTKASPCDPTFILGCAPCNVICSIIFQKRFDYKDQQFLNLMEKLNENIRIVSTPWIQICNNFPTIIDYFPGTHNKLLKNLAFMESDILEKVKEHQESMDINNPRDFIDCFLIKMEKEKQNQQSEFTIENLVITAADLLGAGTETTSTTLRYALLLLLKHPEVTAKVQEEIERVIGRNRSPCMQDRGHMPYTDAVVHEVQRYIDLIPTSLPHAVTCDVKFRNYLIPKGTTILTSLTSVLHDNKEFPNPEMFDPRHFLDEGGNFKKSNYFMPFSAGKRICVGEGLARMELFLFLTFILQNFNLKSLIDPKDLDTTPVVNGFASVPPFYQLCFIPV

Rattus norvegicus [10] = experiment: Volume of distribution in Sprague-Dawley rat at 10 mg/kg, iv; assay type: ADME, organism-based; design: dose 10 mg/kg, route intravenous; details: in vivo
Cytochrome P450 3A4 [11] = molecular target: T3, Cytochrome P450 3A4 (Homo sapiens, UniProt P08684); experiment: Inhibition of CYP3A4; assay type: ADME
T3 sequence (P08684 whole entry): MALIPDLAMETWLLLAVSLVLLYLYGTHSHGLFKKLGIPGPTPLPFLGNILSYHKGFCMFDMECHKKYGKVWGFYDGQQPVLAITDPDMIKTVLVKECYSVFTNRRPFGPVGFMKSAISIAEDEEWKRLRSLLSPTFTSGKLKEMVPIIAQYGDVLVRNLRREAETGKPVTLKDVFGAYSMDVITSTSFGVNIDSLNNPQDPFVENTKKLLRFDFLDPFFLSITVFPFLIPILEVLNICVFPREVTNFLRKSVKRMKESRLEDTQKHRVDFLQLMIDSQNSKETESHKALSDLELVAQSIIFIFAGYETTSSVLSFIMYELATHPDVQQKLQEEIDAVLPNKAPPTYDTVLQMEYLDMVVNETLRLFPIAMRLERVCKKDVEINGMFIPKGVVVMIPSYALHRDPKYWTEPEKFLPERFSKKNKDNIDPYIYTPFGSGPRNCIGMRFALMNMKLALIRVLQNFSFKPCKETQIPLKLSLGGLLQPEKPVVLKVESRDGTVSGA

Plasmodium berghei [12] = experiment: Antimalarial activity against Plasmodium berghei infected in NMRI mice (Mus musculus) assessed as reduction in parasitaemia at 3 mg/kg, perorally administered for 3 days post infection; assay type: functional; design: scale not given: the % may be the effect or the level left; details: route oral
[13] = Oral bioavailability in Sprague-Dawley rat at 10 mg/kg; assay type: ADME, organism-based; details: in vivo
Cytochrome P450 3A4 [14] = molecular target: T3, Cytochrome P450 3A4; experiment: Inhibition of CYP3A4 up to 50 uM; assay type: ADME
Rattus norvegicus [15] = experiment: Plasma concentration in rat at 300 mg/kg, po after 5 days; assay type: ADME, organism-based; design: dose 300 mg/kg, route oral; details: in vivo, 120 h
[16] = Plasma concentration in rat at 100 mg/kg, po after 5 days; assay type: ADME, organism-based; design: dose 100 mg/kg, route oral
Cytochrome P450 2C9 [17] = molecular target: T2, Cytochrome P450 2C9; experiment: Inhibition of CYP2C9 up to 50 uM; assay type: ADME
Cytochrome P450 2D6 [18] = molecular target: T1, Cytochrome P450 2D6; experiment: Inhibition of CYP2D6 up to 50 uM; assay type: ADME

Row | SMILES | IC50 (Plasmodium falciparum [1]) [ng/mL] | Activity (Plasmodium berghei [2]) [%] | IC50 (Plasmodium falciparum [3]) [ng/mL] | Activity (Plasmodium berghei [4]) [%] | further results
1 | O=C(O)CCC(=O)NC[C@H]1CC[C@]2(CC1)OO[C@]1(O2)C2CC3CC(C2)CC1C3 | 97 (≈ 247 nM) | <40 | 71 (≈ 180 nM) |  | 
2 | NC1(C(=O)NC[C@H]2CC[C@]3(CC2)OO[C@]2(O3)C3CC4CC(C3)CC2C4)CCCC1 | 0.36 (≈ 0.89 nM) | 99.9 | 0.33 (≈ 0.816 nM) |  | 
3 | CS(=O)(=O)O.O=C(NC[C@H]1CC[C@]2(CC1)OO[C@]1(O2)C2CC3CC(C2)CC1C3)c1c[nH]cn1 | 1.1 | 99.5 | 0.84 |  | 
4 | OC(c1cc(C(F)(F)F)nc2c(C(F)(F)F)cccc12)C1CCCCN1 (stereo not given) [MEFLOQUINE] |  |  |  | 0 | 
5 | CN(C)C(=O)NC[C@H]1CC[C@]2(CC1)OO[C@]1(O2)C2CC3CC(C2)CC1C3 | 1.5 (≈ 4.12 nM) | 99.4 | 1.1 (≈ 3.02 nM) |  | 
6 | Cc1ccc(S(=O)(=O)O)cc1.O=C(CN1CCS(=O)(=O)CC1)NC[C@H]1CC[C@]2(CC1)OO[C@]1(O2)C2CC3CC(C2)CC1C3 | 5.5 | 86 | 4.6 |  | logD [5]: 4.5
7 | NC[C@H]1CC[C@]2(CC1)OOC1(O2)C2CC3CC(C2)CC1C3 (stereo not given in full) |  | >99.9 |  | 0 | Activity (Cytochrome P450 2D6 [6]): Not Active; logD [5]: 2.6; hepatic extraction ratio (in vitro): 0.24; t1/2 (Rattus norvegicus [7]): 90 min; Survival (Plasmodium berghei [8]): 12.8 days; pIC50 (Cytochrome P450 2C9 [9]): 4.77; pIC50 (Cytochrome P450 2C19): 6.96; Vd (Rattus norvegicus [10]): 46 L/kg; pIC50 (Cytochrome P450 3A4 [11]): 5.01; Activity (Plasmodium berghei [12]): >99.9%; bioavailability [13]: 31%
8 | O=C(NC[C@H]1CC[C@]2(CC1)OO[C@]1(O2)C2CC3CC(C2)CC1C3)N1CCOCC1 |  | 98 |  |  | 
9 | O=C(NC[C@H]1CC[C@]2(CC1)OO[C@]1(O2)C2CC3CC(C2)CC1C3)c1ccncc1 | 1.1 (≈ 2.76 nM) | 99.5 | 2.2 (≈ 5.52 nM) |  | 
10 | O=C(CN1CCOCC1)NC[C@H]1CC[C@]2(CC1)OO[C@]1(O2)C2CC3CC(C2)CC1C3.O=C(O)/C=C\C(=O)O | 1.8 | 99 | 0.88 |  | logD [5]: 5
11 | Cc1ccc(S(=O)(=O)O)cc1.N[C@H]1CC[C@H](NC(=O)C(=O)NC[C@H]2CC[C@]3(CC2)OO[C@]2(O3)C3CC4CC(C3)CC2C4)CC1 | 1.3 | 99.9 | 0.7 | 40 | Survival (Plasmodium berghei [8]): 25.2 days; Activity (Cytochrome P450 3A4 [14]): Not Active; Cp (Rattus norvegicus [15]): 100 mg/kg; concentration at 120 h [16]: 3700 ng/mL; Activity (Plasmodium berghei [12]): >99.9%; Activity (Cytochrome P450 2C9 [17]): Not Active; Activity (Cytochrome P450 2D6 [18]): Not Active
12 | NC1(C(=O)NC[C@H]2CC[C@]3(CC2)OO[C@]2(O3)C3CC4CC(C3)CC2C4)CCCCC1 | 0.44 (≈ 1.05 nM) | 99.9 | 0.24 (≈ 0.573 nM) |  | 
13 | CC(=O)NC[C@H]1CC[C@]2(CC1)OO[C@]1(O2)C2CC3CC(C2)CC1C3 | 0.84 (≈ 2.5 nM) | 98 | 0.63 (≈ 1.88 nM) |  | 
14 | CCNC(=O)NC[C@H]1CC[C@]2(CC1)OO[C@]1(O2)C2CC3CC(C2)CC1C3 |  | 98 |  |  | 
15 | CCN(CC)CCCC(C)Nc1ccnc2cc(Cl)ccc12 (stereo not given) [CHLOROQUINE] |  |  |  | 0 | Survival (Plasmodium berghei [8]): 9.4 days
16 | CS(=O)(=O)O.NCC(=O)NC[C@H]1CC[C@]2(CC1)OO[C@]1(O2)C2CC3CC(C2)CC1C3 | 0.29 | 99.9 | 0.36 | 0 | Activity (Plasmodium berghei [12]): >99.9%
17 | C[C@H]1[C@H](OC(=O)CCC(=O)O)O[C@@H]2O[C@@]3(C)CC[C@H]4[C@H](C)CC[C@@H]1[C@@]24OO3 [ARTESUNATE] |  | 67 |  | 0 | logD [5]: 3.5; Activity (Plasmodium berghei [12]): 70%
18 | O=C(NCC1CCC2(CC1)OOC1(O2)C2CC3CC(C2)CC1C3)c1ccccn1 (stereo not given) | 1.1 (≈ 2.76 nM) | 99.6 |  |  | 
19 | CC(C)(N)CNC(=O)C(=O)NC[C@H]1CC[C@]2(CC1)OO[C@]1(O2)C2CC3CC(C2)CC1C3.CS(=O)(=O)O | 0.54 | 99.9 | 0.4 | 0 | Survival (Plasmodium berghei [8]): 22.8 days; Activity (Plasmodium berghei [12]): >99.9%
